Measurements as given in ChEMBL document CHEMBL3994622, “Design and synthesis of new RAF kinase-inhibiting antiproliferative quinoline derivatives. Part 2: Diarylurea derivatives” (Eur J Med Chem, 2017).

Experiments:
Format in all cases: functional
NCI-H460 [1] = assay: Growth inhibition of human NCI-H460 cells assessed as cell growth at 50 uM incubated for 48 hrs by sulforhodamine B assay relative to control; settings: NCI-H460, 48 h, read-out: Activity
SK-MEL-28 [2] = assay: Growth inhibition of human SK-MEL-28 cells assessed as cell growth at 0.005 uM incubated for 48 hrs by sulforhodamine B assay relative to control; settings: SK-MEL-28, 48 h, read-out: Activity
HT-29 [3] = assay: Growth inhibition of human HT-29 cells assessed as cell growth at 50 uM incubated for 48 hrs by sulforhodamine B assay relative to control; settings: HT-29, 48 h, read-out: Activity
UACC-62 = assay: Growth inhibition of human UACC62 cells assessed as cell growth at 5 uM incubated for 48 hrs by sulforhodamine B assay relative to control; settings: UACC-62, 48 h, read-out: Activity
CAKI-1 = assay: Growth inhibition of human Caki1 cells assessed as cell growth at 0.05 uM incubated for 48 hrs by sulforhodamine B assay relative to control; settings: CAKI-1, 48 h, read-out: Activity
A498 = assay: Growth inhibition of human A498 cells assessed as cell growth at 50 uM incubated for 48 hrs by sulforhodamine B assay relative to control; settings: A498, 48 h, read-out: Activity
SK-MEL-2 = assay: Growth inhibition of human SK-MEL-2 cells assessed as cell growth at 0.5 uM incubated for 48 hrs by sulforhodamine B assay relative to control; settings: SK-MEL-2, 48 h, read-out: Activity
SK-MEL-28 [4] = assay: Growth inhibition of human SK-MEL-28 cells assessed as cell growth at 5 uM incubated for 48 hrs by sulforhodamine B assay relative to control; settings: SK-MEL-28, 48 h, read-out: Activity
SNB-19 [5] = assay: Growth inhibition of human SNB19 cells assessed as cell growth at 50 uM incubated for 48 hrs by sulforhodamine B assay relative to control; settings: SNB-19, 48 h, read-out: Activity
HCT-15 [6] = assay: Growth inhibition of human HCT15 cells assessed as cell growth at 5 uM incubated for 48 hrs by sulforhodamine B assay relative to control; settings: HCT-15, 48 h, read-out: Activity
A549 = assay: Growth inhibition of human A549/ATCC cells assessed as cell growth at 5 uM incubated for 48 hrs by sulforhodamine B assay relative to control; settings: A549, 48 h, read-out: Activity
Hs-578T = assay: Growth inhibition of human Hs 578T cells assessed as cell growth at 0.5 uM incubated for 48 hrs by sulforhodamine B assay relative to control; settings: read-out: Activity
SN12C [7] = assay: Growth inhibition of human SN12C cells assessed as cell growth at 0.5 uM incubated for 48 hrs by sulforhodamine B assay relative to control; settings: read-out: Activity
K562 = assay: Growth inhibition of human K562 cells assessed as cell growth at 0.5 uM incubated for 48 hrs by sulforhodamine B assay relative to control; settings: K562, 48 h, read-out: Activity
COLO 205 = assay: Growth inhibition of human COLO205 cells assessed as cell growth at 0.05 uM incubated for 48 hrs by sulforhodamine B assay relative to control; settings: COLO 205, 48 h, read-out: Activity
SN12C [8] = assay: Growth inhibition of human SN12C cells assessed as cell growth at 5 uM incubated for 48 hrs by sulforhodamine B assay relative to control; settings: read-out: Activity
U-251 = assay: Growth inhibition of human U251 cells assessed as cell growth at 0.05 uM incubated for 48 hrs by sulforhodamine B assay relative to control; settings: U-251, 48 h, read-out: Activity
SF-295 = assay: Growth inhibition of human SF295 cells assessed as cell growth at 0.05 uM incubated for 48 hrs by sulforhodamine B assay relative to control; settings: SF-295, 48 h, read-out: Activity
SNB-19 [9] = assay: Growth inhibition of human SNB19 cells assessed as cell growth at 0.5 uM incubated for 48 hrs by sulforhodamine B assay relative to control; settings: SNB-19, 48 h, read-out: Activity
SK-MEL-5 = assay: Growth inhibition of human SK-MEL-5 cells assessed as cell growth at 0.005 uM incubated for 48 hrs by sulforhodamine B assay relative to control; settings: SK-MEL-5, 48 h, read-out: Activity
HCT-15 [10] = assay: Growth inhibition of human HCT15 cells assessed as cell growth at 0.05 uM incubated for 48 hrs by sulforhodamine B assay relative to control; settings: HCT-15, 48 h, read-out: Activity
SW-620 = assay: Growth inhibition of human SW620 cells assessed as cell growth at 5 uM incubated for 48 hrs by sulforhodamine B assay relative to control; settings: SW-620, 48 h, read-out: Activity
PC-3 = assay: Growth inhibition of human PC3 cells assessed as cell growth at 0.05 uM incubated for 48 hrs by sulforhodamine B assay relative to control; settings: PC-3, 48 h, read-out: Activity
HOP-62 [11] = assay: Growth inhibition of human HOP62 cells assessed as cell growth at 0.05 uM incubated for 48 hrs by sulforhodamine B assay relative to control; settings: HOP-62, 48 h, read-out: Activity
HT-29 [12] = assay: Growth inhibition of human HT-29 cells assessed as cell growth at 5 uM incubated for 48 hrs by sulforhodamine B assay relative to control; settings: HT-29, 48 h, read-out: Activity
NCI-H23 [13] = assay: Growth inhibition of human NCI-H23 cells assessed as cell growth at 0.05 uM incubated for 48 hrs by sulforhodamine B assay relative to control; settings: NCI-H23, 48 h, read-out: Activity
NCI-H23 [14] = assay: Growth inhibition of human NCI-H23 cells assessed as cell growth at 0.5 uM incubated for 48 hrs by sulforhodamine B assay relative to control; settings: NCI-H23, 48 h, read-out: Activity
SF-539 = assay: Growth inhibition of human SF539 cells assessed as cell growth at 0.5 uM incubated for 48 hrs by sulforhodamine B assay relative to control; settings: SF-539, 48 h, read-out: Activity
TK-10 = assay: Growth inhibition of human TK10 cells assessed as cell growth at 0.05 uM incubated for 48 hrs by sulforhodamine B assay relative to control; settings: TK-10, 48 h, read-out: Activity
HOP-62 [15] = assay: Growth inhibition of human HOP62 cells assessed as cell growth at 30 uM incubated for 48 hrs by sulforhodamine B assay relative to control; settings: HOP-62, 48 h, read-out: Activity
EKVX = assay: Growth inhibition of human EKVX cells assessed as cell growth at 0.003 uM incubated for 48 hrs by sulforhodamine B assay relative to control; settings: read-out: Activity
BT-549 = assay: Growth inhibition of human BT549 cells assessed as cell growth at 30 uM incubated for 48 hrs by sulforhodamine B assay relative to control; settings: BT-549, 48 h, read-out: Activity
LOX IMVI = assay: Growth inhibition of human LOXIMVI cells assessed as cell growth at 30 uM incubated for 48 hrs by sulforhodamine B assay relative to control; settings: read-out: Activity
NCI-H460 [16] = assay: Growth inhibition of human NCI-H460 cells assessed as cell growth at 10 uM incubated for 48 hrs by sulforhodamine B assay relative to control; settings: NCI-H460, 48 h, read-out: Activity
MDA-MB-468 = assay: Growth inhibition of human MDA-MB-468 cells assessed as cell growth at 1 uM incubated for 48 hrs by sulforhodamine B assay relative to control; settings: MDA-MB-468, 48 h, read-out: Activity

COc1cc2cc(Oc3ccc(NC(=O)Nc4cccc(C(F)(F)F)c4)cc3)c(C)nc2cc1OC
growth at 50 µM (NCI-H460 [1]): -60%
growth at 0.005 µM (SK-MEL-28 [2]): 101%
growth at 50 µM (HT-29 [3]): -99%
growth at 5 µM (UACC-62): 22%
growth at 0.05 µM (CAKI-1): 93%
growth at 50 µM (A498): -65%
growth at 0.5 µM (SK-MEL-2): 108%
growth at 5 µM (SK-MEL-28 [4]): 21%
growth at 50 µM (SNB-19 [5]): -26%
growth at 5 µM (HCT-15 [6]): 18%
growth at 5 µM (A549): 9%
growth at 0.5 µM (Hs-578T): 99%
growth at 0.5 µM (SN12C [7]): 95%
growth at 0.5 µM (K562): 93%
growth at 0.05 µM (COLO 205): 94%
growth at 5 µM (SN12C [8]): 22%
growth at 0.05 µM (U-251): 99%
growth at 0.05 µM (SF-295): 91%
growth at 0.5 µM (SNB-19 [9]): 96%
growth at 0.005 µM (SK-MEL-5): 96%
growth at 0.05 µM (HCT-15 [10]): 94%
growth at 5 µM (SW-620): 20%
growth at 0.05 µM (PC-3): 99%
growth at 0.05 µM (HOP-62 [11]): 95%
growth at 5 µM (HT-29 [12]): 11%
growth at 0.05 µM (NCI-H23 [13]): 99%
growth at 0.5 µM (NCI-H23 [14]): 97%
growth at 0.5 µM (SF-539): 104%
growth at 0.05 µM (TK-10): 95%

COc1cc2cc(Oc3ccc(NC(=O)Nc4ccc(Cl)c(C(F)(F)F)c4)cc3)c(C)nc2cc1OC
growth at 30 µM (HOP-62 [15]): -96%
growth at 0.003 µM (EKVX): 103%
growth at 30 µM (BT-549): -65%
growth at 30 µM (LOX IMVI): -100%

COc1cc2cc(Oc3ccc(NC(=O)Nc4cc(C(F)(F)F)cc(C(F)(F)F)c4)cc3)c(C)nc2cc1OC
growth at 10 µM (NCI-H460 [16]): -64%
growth at 1 µM (MDA-MB-468): 53%
